The numbers were not newly measured in patent publication US8137922B2, “Method for diagnosing the metabolic syndrome (MS)” (Hans Dieplinger, priority 2007, dated 2012), which cites them from elsewhere.

Where two headings read alike, the source gives them in different places.

For this series, the target named is T1, afamin (Homo sapiens, UniProt P43652).
T1 sequence (P43652 22-599): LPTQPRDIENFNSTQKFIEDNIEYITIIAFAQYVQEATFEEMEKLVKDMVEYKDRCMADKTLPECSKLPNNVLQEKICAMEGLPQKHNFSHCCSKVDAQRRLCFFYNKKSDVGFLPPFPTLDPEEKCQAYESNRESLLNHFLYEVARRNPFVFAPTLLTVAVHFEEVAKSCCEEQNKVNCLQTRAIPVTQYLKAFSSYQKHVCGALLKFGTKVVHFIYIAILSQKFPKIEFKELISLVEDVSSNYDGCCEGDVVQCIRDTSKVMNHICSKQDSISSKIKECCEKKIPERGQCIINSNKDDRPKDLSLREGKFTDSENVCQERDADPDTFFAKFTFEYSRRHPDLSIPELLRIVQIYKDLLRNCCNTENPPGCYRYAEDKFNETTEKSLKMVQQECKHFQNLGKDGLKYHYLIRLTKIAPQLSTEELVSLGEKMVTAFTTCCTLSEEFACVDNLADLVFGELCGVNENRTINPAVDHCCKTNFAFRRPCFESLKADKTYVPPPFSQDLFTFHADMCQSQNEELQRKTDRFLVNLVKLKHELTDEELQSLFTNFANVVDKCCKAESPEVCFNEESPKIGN
The settings on record: for maximum displacement of tocopherol: 2 μM afamin, 60 μM alpha-[14C]tocopherol, 100-fold excess of non-labeled competitor.

Turning to `Cc1c(C)c2c(c(C)c1O)CC[C@@](C)(CCC[C@H](C)CCC[C@H](C)CCCC(C)C)O2` [alpha-tocopherol], the “maximum displacement of tocopherol” value is listed as 80%.

On to `Cc1c(O)cc2c(c1C)O[C@](C)(CCC[C@H](C)CCC[C@H](C)CCCC(C)C)CC2` [gamma-tocopherol], for which the “maximum displacement of tocopherol” value is on record as 80%.

In the case of vitamin E, the Hill coefficient (as a rule, a measure of the steepness of the concentration-response curve) (calculated, indicates that afamin could bind pairs of tocopherol) was 1.8. Moreover, the Kd was 6.3 µM (first of two binding sites, read-out: KD1, affinity of afamin for vitamin E) and 22 µM (second of two binding sites, read-out: KD2, affinity of afamin for vitamin E). Also, for the setting “when both sites are activated”, the “maximal binding (Bmax)” value was 18 molecules of Vitamin E.
